Where a name gives a salt, the structure may show the parent alone.
Test system: MTT (mouse pheochromocytoma)
Experiment: IC50 of cell viability (ATP content)
Conditions: (24 or 48 h)
Outline: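 MTT mouse pheochromocytoma cells, cultured overnight at 37°C, 5% CO2 in DMEM with 5% FBS and 1% horse serum, were exposed in white 1536-well plates to library compounds in DMSO at final 0.5 nM to 46 µM (8 concentrations) for 24 or 48 hrs. CellTiter-Glo luminescence was normalised to positive-control (100%) and DMSO (0%) wells. A four-parameter logistic fit gave the IC50.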

IC50 of cell viability [µM] | Compound
> 46 | C[C@@H](CN(C)C)CN1c2ccccc2Sc2ccccc21.C[C@@H](CN(C)C)CN1c2ccccc2Sc2ccccc21.O=C(O)[C@@H](O)[C@@H](O)C(=O)O [Trimeprazine tartrate]
> 46 | CN1C(=O)OC(C)(C)C1=O [Trimethadione]
> 46 | COc1cc(C(=O)NCc2ccc(OCCN(C)C)cc2)cc(OC)c1OC [Trimethobenzamide hydrochloride]
> 46 | COc1cc(Cc2cnc(N)nc2N)cc(OC)c1OC [Trimethoprim]
> 46 | COc1cc(C[C@H]2NCCc3cc(O)c(O)cc32)cc(OC)c1OC [Trimethoquinol]
> 46 | COc1cc(C(=O)N2CCOCC2)cc(OC)c1OC [Trimetozine]
> 46 | C[C@@H](CN(C)C)CN1c2ccccc2CCc2ccccc21 [Trimipramine maleate salt]
> 46 | CC1=CC2=C(O1)C(=C3OC(=O)\C=C(C)/C3=C2)C [Trioxsalen]
> 46 | CCCCCCCCCCCCCCCC(=O)OCC(COC(=O)CCCCCCCCCCCCCCC)OC(=O)CCCCCCCCCCCCCCC [Tripalmitin]
> 46 | COc1cc(C(=S)N2CCOCC2)cc(OC)c1OC [Tritiozina]
> 46 | CC(C)(C)CC(C)(C)c1ccc(OCCO)cc1 [Triton X-100]
> 46 | Cc1c(C)c2c(c(C)c1O)CCC(C)(COc1ccc(CC3SC(=O)NC3=O)cc1)O2 (centres undefined) [Troglitazone]
> 46 | CO[C@@H]1C[C@H](O[C@H]2[C@H](C)[C@H](O[C@@H]3O[C@@H](C)C[C@@H](N(C)C)[C@H]3OC(C)=O)[C@H](C)C[C@]3(CO3)C(=O)[C@H](C)[C@H](OC(C)=O)[C@H](C)[C@H](C)OC(=O)[C@@H]2C)O[C@H](C)[C@H]1OC(C)=O [Troleandomycin]
> 46 | BrC1=C2N=CC=NC2=CC=C1N\C3=N\CCN3 [UK 14,304]
> 46 | Oc1ccnc(O)n1 [URACIL]
> 46 | COC1=C(C=CC=C1)N2CCN(CCCN\C3=C\C(=O)N(C)C(=O)N3C)CC2 [URAPIDIL]
> 46 | CCOC(N)=O [URETHANE]
> 46 | Oc1nc(O)c2nc(O)[nH]c2n1.[NaH] [URIC ACID]
> 46 | COC1=C(OC)C(=O)C(C/C=C(\C)CC/C=C(\C)CC/C=C(\C)CC/C=C(\C)CC/C=C(\C)CC/C=C(\C)CC/C=C(\C)CC/C=C(\C)CC/C=C(\C)CCC=C(C)C)=C(C)C1=O [Ubidecarenone]
> 46 | O=C(Nc1ccc(/C=C/c2ccc(NC(=O)c3cc([S+](=O)([O-])O)c4cccnc4c3O)cc2[S+](=O)([O-])O)c([S+](=O)([O-])O)c1)c1cc([S+](=O)([O-])O)c2cccnc2c1O [Ubistatin A]
> 46 | C=CCCCCCCCCC(=O)O [Undecylenic acid]

IC50 of cell viability [µM] | Compound
> 46 | CCCCCCCC(=O)CC[C@H]1[C@@H](C/C=C/CCCC(=O)OC(C)C)[C@@H](O)C[C@H]1O [Unoprostone Isopropyl Ester]
> 46 | Cl.COC1=C(C=CC=C1)N2CCN(CCCNC/3=C/C(=O)N(C)C(=O)N3C)CC2 [Urapidil hydrochloride]
> 46 | NC(N)=O [Urea]
> 46 | Oc1nc(O)c2[nH]c(O)nc2n1 [Uric acid]
> 46 | Cc1onc(-c2ccccc2)c1-c1ccc([S+](N)(=O)[O-])cc1 [VALDECOXIB]
> 46 | CC(C)[C@H](N)C(=O)OCC(CO)OC[N]1C=NC2=C1\N=C(\N)NC2=O (some centres undefined) [VALGANCICLOVIR HYDROCHLORIDE]
> 46 | CC(C)[C@@H](N)C(=O)O [VALINE]
> 46 | C=C[C@@]1(C)C[C@H](OC(=O)CSC(C)(C)CNC(=O)[C@@H](N)C(C)C)[C@@]2(C)C(C)CC[C@@]3(CCC(=O)[C@@H]32)[C@H](C)[C@H]1O (some centres undefined) [VALNEMULIN HYDROCHLORIDE]
> 46 | CCCCC(=O)N(Cc1ccc(-c2ccccc2-c2nn[nH]n2)cc1)C(C(=O)O)C(C)C (centres undefined) [VALSARTAN]
> 46 | CN[C@H](CC(C)C)C(=O)N[C@H]1C(=O)N[C@@H](CC(N)=O)C(=O)N[C@H]2C(=O)N[C@H]3C(=O)N[C@H](C(=O)N[C@H](C(=O)O)c4cc(O)cc(O)c4-c4cc3ccc4O)[C@H](O)c3ccc(c(Cl)c3)Oc3cc2cc(c3O[C@@H]2OC(CO)[C@@H](O)[C@H](O)[C@H]2O[C@H]2C[C@](C)(N)[C@H](O)[C@H](C)O2)Oc2ccc(cc2Cl)[C@H]1O (some centres undefined) [VANCOMYCIN HYDROCHLORIDE]
> 46 | O=C(O)CC/C=C\CC[C@@H]1[C@@H](N2CCCCC2)[C@@H](O)C[C@@H]1OCc1ccc(-c2ccccc2)cc1 [VAPIPROST HYDROCHLORIDE]
> 46 | CCCc1nc(C)c2c(=O)nc(-c3cc([S+](=O)([O-])N4CCN(CC)CC4)ccc3OCC)[nH]n12 [VARDENAFIL HYDROCHLORIDE]
> 46 | Clc1ccc(Nc2nnc(Cc3ccncc3)c3ccccc23)cc1 [VATALANIBUM]
> 46 | CC(=O)O[C@H]1C[C@@H]2CC[C@@H]3[C@H](CC[C@@]4(C)[C@H]3C[C@H]([N+]3(C)CCCCC3)[C@@H]4OC(C)=O)[C@@]2(C)C[C@@H]1N1CCCCC1 [VECURONIUM BROMIDE]
> 46 | COc1ccc(CCN(C)CCCC(C#N)(c2ccc(OC)c(OC)c2)C(C)C)cc1OC (centres undefined) [VERAPAMIL]
> 46 | C=CC(N)CCC(=O)O (centres undefined) [VIGABATRIN]
> 46 | CC[C@@]12CCCN3CCc4c(n(c5ccccc45)[C@](O)(C(=O)OC)C1)C32 (some centres undefined) [VINCAMINE]
> 46 | CCOC(=O)\C1=C\[C@@]2(CC)CCCN3CCC4=C([C@@H]23)[N]1C5=C4C=CC=C5 [VINPOCETINE]
> 46 | CCOC(=O)\C1=C\[C@]2(CC)CCCN3CCC4=C([C@H]23)[N]1C5=C4C=CC=C5 [VINPOCETINE]
> 46 | NCCCC(N)CC(=O)NC1CNC(=O)C(C2CC(O)NC(N)=N2)NC(=O)/C(=C/NC(N)=O)NC(=O)C(CO)NC(=O)C(CO)NC1=O (centres undefined) [VIOMYCIN SULFATE]

Compound | IC50 of cell viability [µM]
NC(Cc1ccc(Oc2cc(I)c(O)c(I)c2)c(I)c1)C(=O)O (centres undefined) [Triiodothyronine, reverse] | > 46
COc1ccc(CN2CCNCC2)c(OC)c1OC [Trimetazidine dihydrochloride] | > 46
CC1(C)CC/C(=C\c2ccc(Cl)cc2)C1(O)Cn1cncn1 (centres undefined) [Triticonazole] | > 46
OCCN(CCO)CCO [Trolamine] | > 46
N#CC(C#N)=Cc1ccc(O)c(O)c1 [Tyrphostin 23] | > 46
N#CC(C#N)=Cc1cc(O)c(O)c(O)c1 [Tyrphostin 25] | > 46
Oc1ncc(N(CCCl)CCCl)c(O)n1 [URACIL MUSTARD] | > 46
COc1ccc(C(CN(C)C)C2(O)CCCCC2)cc1 (centres undefined) [VENLAFAXINE] | > 46
